Experimental data published in ChEMBL document CHEMBL1201862, “PubChem BioAssay data set” (2004).
Activity calls are given as the source filed them.

Assays:
[1] = target: T1, Protein RecA (Mycobacterium tuberculosis, UniProt P9WHJ3); assay: Fluorescence Cell-Free Homogeneous Dose Retest to Identify Inhibitors of RecA-Intein Splicing Activity. [Related pubchem assays (depositor defined):AID2097, AID2223, AID489010, AID492950]; format: functional
T1 sequence (P9WHJ3 whole entry): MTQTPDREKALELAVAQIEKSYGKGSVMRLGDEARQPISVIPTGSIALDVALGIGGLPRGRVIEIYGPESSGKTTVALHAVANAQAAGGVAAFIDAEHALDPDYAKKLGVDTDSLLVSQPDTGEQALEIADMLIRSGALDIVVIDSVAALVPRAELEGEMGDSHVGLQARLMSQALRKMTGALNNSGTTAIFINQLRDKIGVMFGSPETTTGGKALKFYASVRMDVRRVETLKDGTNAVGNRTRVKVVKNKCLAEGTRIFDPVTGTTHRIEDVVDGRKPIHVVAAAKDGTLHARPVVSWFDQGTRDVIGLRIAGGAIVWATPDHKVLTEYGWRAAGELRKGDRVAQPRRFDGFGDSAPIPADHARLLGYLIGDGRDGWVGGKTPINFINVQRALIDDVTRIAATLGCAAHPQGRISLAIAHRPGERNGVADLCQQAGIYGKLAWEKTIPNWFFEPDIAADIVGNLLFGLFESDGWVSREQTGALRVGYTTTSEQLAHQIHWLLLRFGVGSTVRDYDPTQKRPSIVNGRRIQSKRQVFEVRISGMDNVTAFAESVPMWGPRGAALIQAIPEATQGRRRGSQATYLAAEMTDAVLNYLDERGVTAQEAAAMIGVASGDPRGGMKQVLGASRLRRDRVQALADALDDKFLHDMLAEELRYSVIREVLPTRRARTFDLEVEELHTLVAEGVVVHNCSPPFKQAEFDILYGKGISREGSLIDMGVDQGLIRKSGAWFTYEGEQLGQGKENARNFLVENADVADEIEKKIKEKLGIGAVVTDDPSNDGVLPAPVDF

[2] = target: T2, Tyrosyl-DNA phosphodiesterase 2 (Homo sapiens, UniProt O95551); assay: human TDP2 enzyme inhibitors, dose response, biochemical, epi absorbance, IC50 (AID 743297)
T2 sequence (O95551 whole entry): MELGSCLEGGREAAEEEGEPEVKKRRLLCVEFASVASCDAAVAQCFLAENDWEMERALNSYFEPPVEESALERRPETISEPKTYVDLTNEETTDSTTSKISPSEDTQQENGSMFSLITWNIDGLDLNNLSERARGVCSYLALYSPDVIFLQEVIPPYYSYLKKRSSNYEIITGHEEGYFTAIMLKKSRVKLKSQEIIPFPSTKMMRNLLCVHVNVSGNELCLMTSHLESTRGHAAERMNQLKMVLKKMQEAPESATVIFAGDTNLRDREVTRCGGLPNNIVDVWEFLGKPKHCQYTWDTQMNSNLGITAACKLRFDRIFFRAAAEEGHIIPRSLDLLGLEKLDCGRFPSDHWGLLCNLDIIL

[3] = target: T3, Replicative DNA helicase DnaB (Mycobacterium tuberculosis, UniProt P9WMR3); assay: DnaB intein splicing inhibitors, dose response, biochemical, cell-free fluorescence (AID 449749); format: functional
T3 sequence (P9WMR3 whole entry): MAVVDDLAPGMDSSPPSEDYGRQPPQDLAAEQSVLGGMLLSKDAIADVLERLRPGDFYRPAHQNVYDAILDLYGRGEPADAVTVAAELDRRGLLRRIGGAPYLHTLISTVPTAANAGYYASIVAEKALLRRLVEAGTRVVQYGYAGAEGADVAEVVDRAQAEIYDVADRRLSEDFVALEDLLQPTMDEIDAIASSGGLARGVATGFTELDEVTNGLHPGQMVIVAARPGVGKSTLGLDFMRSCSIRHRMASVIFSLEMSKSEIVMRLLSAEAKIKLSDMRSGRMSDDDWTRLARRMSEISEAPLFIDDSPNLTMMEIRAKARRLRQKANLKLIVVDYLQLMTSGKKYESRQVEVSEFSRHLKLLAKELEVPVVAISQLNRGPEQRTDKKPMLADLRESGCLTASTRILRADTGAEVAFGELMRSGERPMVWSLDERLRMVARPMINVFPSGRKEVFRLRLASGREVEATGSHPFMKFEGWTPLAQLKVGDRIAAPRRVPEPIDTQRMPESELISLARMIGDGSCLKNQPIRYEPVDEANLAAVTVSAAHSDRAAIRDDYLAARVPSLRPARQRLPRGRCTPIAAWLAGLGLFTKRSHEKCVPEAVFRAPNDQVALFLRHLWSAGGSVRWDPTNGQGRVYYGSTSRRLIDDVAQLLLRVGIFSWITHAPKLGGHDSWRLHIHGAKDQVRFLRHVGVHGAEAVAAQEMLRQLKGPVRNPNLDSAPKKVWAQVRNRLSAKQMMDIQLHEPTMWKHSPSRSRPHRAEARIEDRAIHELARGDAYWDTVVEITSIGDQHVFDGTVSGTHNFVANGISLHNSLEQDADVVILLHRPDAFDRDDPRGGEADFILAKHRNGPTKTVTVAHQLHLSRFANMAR

Structure (SMILES)	EC50 [1]	IC50 [2]	AC50 [3]
O=[N+]([O-])c1c(Nc2ccccn2)cc(Cl)c2nonc12	1.02 µM (active)	99.4 µM (inactive)	1.79 µM (active)
Cc1ccc(S(=O)(=O)/N=C2\C=C(Nc3cccc(C(=O)O)c3)C(=O)c3ccccc32)cc1	0.266 µM (active)	3.18 µM (active)	0.516 µM (active)
Cc1ccc(C(=O)NC2(O)C(=O)c3ccccc3C2=O)cc1C	15.9 µM (active)	5.74 µM (active)	6.24 µM (active)
